Data reported in ChEMBL document CHEMBL1157539, “Thousands of chemical starting points for antimalarial lead identification” (Nature, 2010).

Test system: Plasmodium falciparum
Assay: GSK_TCMDC: Inhibition of Plasmodium falciparum 3D7 in whole erythrocytes, using parasite LDH activity as an index of growth.
Type: functional, organism-based
Conditions: Plasmodium falciparum, 3D7

Row | Compound | XC50 [nM]
1 | CCOc1c(CNCCCNc2cc(O)c3ccccc3n2)cc(Br)cc1OC | 1160
2 | COC(=O)C(C)(C)Cc1c(SC(C)(C)C)c2cc(C(C)C)ccc2n1Cc1ccc(Cl)cc1 | 849
3 | CCN1CCC(N(Cc2ccc(-c3ccc(C(F)(F)F)cc3)cc2)C(=O)Cn2c(CCc3cccc(F)c3F)cc(=O)c3cn(C)nc32)CC1 | 240
4 | CNC(=O)c1cnc(Nc2ccc(N3CCN(C)CC3)c(C)c2)nc1NC | 869
5 | FC(F)(F)c1ccc2[nH]ccc(=NN=Cc3cccc(Cl)c3)c2c1 | 825
6 | O=C(Nc1ccccc1)c1cccc(Nc2nccc(Nc3ccc(Oc4ccccc4)cc3)n2)c1 | 1550
7 | CN(C)CCC1CCN(CCS(=O)(=O)c2cccc(Nc3ccc(-c4ccsc4)cn3)c2)CC1 | 938
8 | CN1CCN(CC(=O)Nc2cccc(-c3ccc(-c4nc5cc(C(F)(F)F)ccc5[nH]4)cc3)c2)CC1 | 520
9 | CC(C)(C)c1ccc(CN2CCC(CNC(=O)c3cc(-c4ccccc4F)cs3)C2)cc1 (centres undefined) | 564
10 | CC(C)N(CCOc1ccc2c(c1)N(C(=O)Nc1cc(Br)cc(C(F)(F)F)c1)CC2)C(C)C | 108
11 | COc1cccc2cc(C(=O)N[C@@H](CC(C)C)C(=O)NC(/C=N/NC(=O)c3ccccc3)CCc3ccccc3)oc12 (some centres undefined) | 577
12 | CCc1c(CCNCCCCCCNCCc2ccc3c(c2C)OCO3)ccc2c1OCO2 | 608
13 | Cc1cc(N2CCCC2)nc(Nc2ccc(NC(=O)c3ccc(Br)o3)cc2)n1 | 623
14 | COc1ccc2[nH]c(C(=O)Nc3cccc(-c4ccc(CN(C)C)cc4)c3)cc2c1 | 908
15 | CSc1ccc(C[C@@H](C)NC[C@H](O)c2cccc(Cl)c2)cc1 | 940
16 | COc1cc2c(cc1OC)-c1cc(=Nc3c(C)cc(C)cc3C)n(C)c(=O)n1CC2 | 1110
17 | O=C1c2ccccc2CCC1CCN1CC=C(c2c[nH]c3ccccc23)CC1 (centres undefined) | 697
18 | CCOc1ccc(-c2cc3nc(C4CCNCC4)c(C(=O)Nc4ccc(C)cc4Cl)cn3n2)cc1 | 919
19 | O=C(Nc1ccc(CCNCc2ccccc2)cc1)Nc1ccc(OC(F)(F)F)cc1 | 584
20 | COc1ccc2nccc([C@@H](O)CN3CCC(NC(=O)/C=C/c4ccc(Cl)c(C(F)(F)F)c4)CC3)c2c1 | 290
21 | COCn1ccc2c3c(N)nc(N)nc3ccc21 | 990
22 | COc1ccc2cc(C=NNc3nc4ccccc4[nH]3)c(Cl)nc2c1 | 653
23 | Cc1cc(NC(=O)Nc2ccc(Cl)cc2F)c2ccccc2n1 | 547
24 | Oc1cccc(CCNCCCCCCNCCc2ccc(Cl)cc2)c1 | 774
25 | CCCc1cc(Cc2cnc(N)nc2N)ccc1OCCCCCC(=O)OCC | 495

Row | Compound | XC50 [nM]
26 | NC(=O)C1Cc2ccccc2CN1CC(=O)Nc1ccccc1Sc1ccccc1 (centres undefined) | 68.4
27 | Cc1cc(Nc2cccc(C(F)(F)F)c2)nc(N)n1 | 790
28 | Oc1ccc(Nc2nc(NCc3ccccc3)c3ccccc3n2)cc1 | 192
29 | O=C(/C=C/c1ccc(Cl)c(Cl)c1)NC1CCC(CN2CCC(Cc3c[nH]c4ccccc34)CC2)CC1 (centres undefined) | 888
30 | O=c1c(Br)ccccc1Br | 795
31 | Cc1ccc(C)c(NC(=O)Nc2ccc(Nc3nc(C)cc(N4CCOCC4)n3)cc2)c1 | 978
32 | NCC(=O)Nc1cccc(Nc2nccc(-c3c(-c4cccc(NC(=O)c5ccccc5)c4)nn4ccccc34)n2)c1 | 432
33 | N=C(N)Nc1ccc(OCCCCCOc2ccc(NC(=N)N)cc2)cc1 | 193
34 | Cc1cccc2nc(-c3cccc(-c4ccc(NC(=O)CN5CCOCC5)cc4)c3)[nH]c12 | 1050
35 | CCN(CC)CCOc1ccc(NC(=O)c2oc3ccccc3c2C=Cc2ccccc2)cc1 | 223
36 | COc1ccc(CNc2nc(NCCc3ccccc3)c3cc(OC)c(OC)cc3n2)cc1OC | 180
37 | Oc1ccc(-c2nc3c4cc(I)ccc4c4ccc(I)cc4c3[nH]2)cc1 | 972
38 | Cn1ccnc1CCC(=O)Nc1ccc(Cl)cc1C(=O)Nc1ccc(Cl)cc1 | 1560
39 | COc1cc(CN2CCN(c3ccnc(N(C)C4CCN(C)CC4)n3)CC2)cc(Cl)c1O | 784
40 | COc1ccc2nc(-c3cc(-c4ccc(NC(=O)CN5CCOCC5)cc4)cnc3N)[nH]c2c1 | 616
41 | O=C(Cc1cccs1)NCC(c1ccccc1Cl)c1c[nH]c2ccccc12 (centres undefined) | 1150
42 | c1ccc2sc(Sc3ncnc4sccc34)nc2c1 | 734
43 | O=C(N[C@H]1CCN(Cc2ccc(OCCCN3CCCCC3)cc2)C1)c1cc(Cl)cc(Cl)c1 | 621
44 | Cc1cccc2nc(-c3cccc(-c4cccc(NC(=O)c5c[nH]cn5)c4)c3)[nH]c12 | 258
45 | O=C(Nc1ccc(OC(F)(F)F)cc1)NC1CCN(c2ccnc3ccccc23)CC1 | 297
46 | COC(=O)c1cccc(CNCc2ccc(-c3ccc(-c4nc5cc(C(F)(F)F)ccc5[nH]4)s3)cc2)c1 | 157
47 | Cc1cccc2nc(-c3ccc(-c4cccc(C(=O)NCCN5CCCC5)c4)s3)[nH]c12 | 1140
48 | Cc1cc(N2CCCCC2)nc2ccc(NC(=O)c3cc(=O)c4ccccc4o3)cc12 | 716
49 | Cc1ccccc1C(O)CNc1ccnc(Nc2cccc(C#N)c2)n1 (centres undefined) | 875
50 | Oc1ccccc1N1CCN(c2ccc(-c3nc4ccccc4[nH]3)cn2)CC1 | 1130

Row | Compound | XC50 [nM]
51 | CCn1c(-c2nonc2N)nc2c(C#CC(C)(C)O)ncc(OCCNCCc3ccc(OC)cc3)c21 | 957
52 | O=S(=O)(Nc1ccc(CCN2CCC(N3CCCCC3)CC2)cc1)c1ccc(Cl)cc1 | 1090
53 | CCNc1cc(C(=O)N[C@@H](Cc2ccccc2)[C@H](O)CN[C@H](C)c2ccccc2)cc(N2CCCC2=O)c1 | 54.3
54 | Cc1c(C(=O)N(C)C)sc2c1c(=O)n(Cc1ccccc1)c(=O)n2CC(=O)Nc1ccccc1F | 657
55 | COc1cc2nc(N3CCC(CNC(=O)/C=C/c4ccccc4F)CC3)nc(N)c2cc1OC | 581
56 | CC(C)COc1ccc(Cl)cc1Cc1ccc(-c2nc3cc(CCN(C)C)ccc3[nH]2)o1 | 982
57 | CNC(=O)c1ccccc1Nc1nc(Nc2ccc(N3CCOCC3)cc2)ncc1Cl | 727
58 | COCCn1c(SC(C)C(=O)Nc2cc(C(F)(F)F)ccc2Cl)nc2ccccc2c1=O (centres undefined) | 629
59 | CN(N=Cc1ccccc1)C(=N)NCCCC#Cc1cccc(CN2CCCC2)c1 | 1790
60 | FC(F)(F)c1cccc(Nc2nc(-c3ccccc3)nc3ncccc23)c1 | 802
61 | Fc1ccc2[nH]c(-c3ccc(-c4ccc(CN5CCN(c6ccncc6)CC5)cc4)cc3)nc2c1 | 251
62 | CC(C)c1sc(-c2ccc(C(C)(C)C)cc2)nc1C(=O)NCCCN1CCCC1=O | 672
63 | O=[N+]([O-])c1cccc(CNCC2CCN(Cc3ccc(C(F)(F)F)cc3)CC2)c1 | 245
64 | COc1ccc2ncc(F)c(NC(=O)C3CCC(NCc4cc5cc(F)cc(F)c5[nH]4)CC3)c2n1 (centres undefined) | 1090
65 | CCOC(=O)NCC(=O)Nc1cccc(-c2cccc(-c3nc4cccc(C)c4[nH]3)c2)c1 | 740
66 | Cc1nc(N)nc(N)c1OCCCCCCOc1ccccc1 | 235
67 | N=C(N)NN=Cc1ccc2ccc3ccccc3c2c1 | 376
68 | Cn1c(=O)n(C)c2cc(CNCCNc3ccnc4cc(Cl)ccc34)ccc21 | 140
69 | CCN(CC1CCN(CC2(O)CCOCC2)CC1)c1cc(C)nc(Nc2ccc(Cl)cc2)n1 | 406
70 | CN1CCN(c2ccc(-c3cc(-c4ccncc4)c(-c4ccc(Cl)c(O)c4)o3)cc2)CC1 | 737
71 | C=CCn1c(Sc2ccc(C#N)c([N+](=O)[O-])c2)nnc1-c1ccc(OC)cc1 | 795
72 | Cc1cc(N2CCN(C)CC2)nc2ccc(NC(=O)Cc3cccc(C(F)(F)F)c3)cc12 | 737
73 | Cc1ccc2c(OCCN3CCC(Cc4cc5c(cc4F)OCC(=O)N5)CC3)cc(F)cc2n1 | 631
74 | CC(C)C1C(O)=C(c2ccc3ccccc3c2)C(=O)N1Cc1cccc(F)c1 (centres undefined) | 812
75 | OCCN1CCN(Cc2ccc(-c3cccc(-c4nc5cc(F)ccc5[nH]4)c3)cc2)CC1 | 608

Row | Compound | XC50 [nM]
76 | CN1CC=C(c2c[nH]c3ccc(Oc4ccccc4)cc23)CC1 | 253
77 | CC(C)(C)c1ccc(CN2CCC(CNC(=O)c3cc(-c4cccc(Cl)c4)cs3)C2)cc1 (centres undefined) | 1160
78 | N=C(N)Nc1nc(CCCCCCCCc2csc(NC(=N)N)n2)cs1 | 598
79 | CC(C)N(Cc1ccccc1)C(=O)CN1C(=O)COc2ccc(S(=O)(=O)N3CCCCCC3)cc21 | 253
80 | CCOc1c(OC)ccc2c1CCN(CCN1CCC(NC(=O)c3ccc(-c4cccc(C(F)(F)F)c4C(F)(F)F)cc3)CC1)C2 | 728
81 | COc1ccc2ccccc2c1CON1C(=N)N=C(N)NC1(C)C | 28.8
82 | COc1ccc(NC(=O)C2c3ccccc3C(=O)N(C3CCCC3)C2c2cccs2)cc1OC (centres undefined) | 1090
83 | Cc1ccc(C[C@@H](C)NC[C@H](O)c2cccc(C(F)(F)F)c2)cc1 | 876
84 | COc1ccccc1N=C1SC(=Cc2cn(CC(=O)N3CCCc4ccccc43)c3ccccc23)C(=O)N1C1CCCCC1 | 28.9
85 | COCCOc1ccc(C(F)(F)F)cc1NC(=O)Cc1c(F)cccc1Cl | 1000
86 | Cc1cccc2nc(-c3ccc(-c4cccc(C(=O)NCCc5cn(C)cn5)c4)s3)[nH]c12 | 877
87 | O=C(NC1CCCCN(Cc2ccccc2O)C1)c1ccc(-c2ccccc2)cc1 (centres undefined) | 759
88 | CCc1cccc(OCCCON2C(=N)N=C(N)NC2(C)C)c1 | 3.2
89 | CCn1cnc2c(N3CCCC3=O)cc(C(=O)N[C@@H](Cc3ccccc3)[C@H](O)CNC3CCCCC3)cc21 | 574
90 | CC(CN1CCN(C)CC1)C(=O)Nc1ccc(-c2cccc(-c3nc4cc(C(F)(F)F)ccc4[nH]3)c2)cc1 (centres undefined) | 403
91 | CCCCC(CC)C(=O)C(NC(=O)[C@H](CSC(c1ccccc1)(c1ccccc1)c1ccccc1)NC(=O)OC(C)(C)C)C(=O)OC (some centres undefined) | 1020
92 | Cc1cc(O)c(-c2ccc(S(=O)(=O)c3ccc(Cl)cc3)cc2)c(C)n1 | 877
93 | CCC(=O)N(c1ccccc1)C1CCN(CCCC(NC(=O)Nc2cc(C(F)(F)F)cc(C(F)(F)F)c2)c2ccc(Cl)c(Cl)c2)CC1 (centres undefined) | 672
94 | COc1ccc2ncc(Cl)c(NCC3(O)CCC(NCc4ccc5c(n4)NC(=O)CS5)CC3)c2n1 (centres undefined) | 597
95 | CC(=O)Nc1ccc(C(=O)Nc2ccc(-c3cccc(-c4nc5ccccc5[nH]4)c3)cc2)cn1 | 238
96 | CCCCCCNC(=O)C1Cc2c([nH]c3cc(Cl)ccc23)C2(CCN(Cc3ccccc3)CC2)N1 (centres undefined) | 903
97 | CC[C@H]1CN2CC[C@@H]1C[C@H]2[C@H](O)c1cc(N2CCSCC2)nc2ccc(OC)cc12 | 199
98 | CCCCOc1c(CNCCCCCCNCc2ccc3ccccc3c2OCCCC)ccc2ccccc12 | 869
99 | CC1CCN(Cc2ccc(NC(=O)c3cc4ccc5cccnc5c4[nH]3)cc2)CC1 | 779
